According to ChEMBL document CHEMBL5029141, “Three-Dimensional Proteome-Wide Scale Screening for the 5-Alpha Reductase Inhibitor Finasteride: Identification of a Novel Off-Target” (J Med Chem, 2021):
The source made the active and inactive calls. The calls are words filed in the database; no cut-off is given here.

Columns and labels:
[1] = target: T1, Phenylethanolamine N-methyltransferase (Homo sapiens) (UniProt P11086); assay: Inhibition of human recombinant PNMT using AdoMet and DL-norepinephrine hydrocloride as substrate preincubated for 30 mins followed by substrate addition and measured after 30 mins by fluorescence based analysis relative to control; conditions: time 1.0 hrs
T1 sequence (whole entry): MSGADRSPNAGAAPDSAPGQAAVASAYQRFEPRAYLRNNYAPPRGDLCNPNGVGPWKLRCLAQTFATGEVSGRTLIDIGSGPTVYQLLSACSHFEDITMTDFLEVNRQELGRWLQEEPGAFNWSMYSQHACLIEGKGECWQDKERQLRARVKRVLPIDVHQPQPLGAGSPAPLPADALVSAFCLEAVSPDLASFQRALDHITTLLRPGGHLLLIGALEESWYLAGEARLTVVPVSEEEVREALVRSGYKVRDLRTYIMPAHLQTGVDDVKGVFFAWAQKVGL

Rattus norvegicus [2] = assay: In vivo inhibition of PNMT in Sprague-Dawley rat assessed as increase in norepinephrine level in adrenal gland at 1 mg, sc administered once daily for 20 days and measured after 24 hrs post last dose by liquid chromatography tandem mass spectrometry analysis; type: functional, organism-based; conditions: time 20.0 day
Rattus norvegicus [3] = assay: In vivo inhibition of PNMT in Sprague-Dawley rat assessed as decrease in epinephrine level in adrenal gland at 1 mg, sc once daily treated for 20 days and measured after 24 hrs post last dose by liquid chromatography tandem mass spectrometry analysis; type: functional, organism-based; conditions: time 20.0 day
Rattus norvegicus [4] = assay: Effect on PNMT protein expression level in Sprague-Dawley rat at 1 mg, sc once daily treated for 20 days and measured after 24 hrs post last dose by western blot analysis; type: functional, organism-based; conditions: time 20.0 day

With `CC(C)(C)NC(=O)[C@H]1CC[C@H]2[C@@H]3CC[C@H]4NC(=O)C=C[C@]4(C)[C@H]3CC[C@]12C` the inhibition [1] was > 30%, the Activity (Rattus norvegicus [2]) was “Active” and the Activity (Rattus norvegicus [3]) was “Active”. The Activity (Rattus norvegicus [4]) was “inactive”.

`CC(N)c1cccc(Cl)c1Cl` (stereo not given) was tested, and the inhibition [1] was 60%.
